Results reported in paper PMC4978154, “Phase I metabolites of mephedrone display biological activity as substrates at monoamine transporters” (British Journal of Pharmacology, 2016).
Where two headings read alike, the source gives them in different places.

Experiments:
[1] = system: extracellular dopamine in rat nucleus accumbens; experiment: Microdialysis in rat nucleus accumbens, dialysate dopamine; format: in vivo; details: versus saline
Description: In vivo microdialysis procedures were carried out as previously described with minor modifications (Baumann et al., 2012). Briefly, male rats anaesthetized with sodium pentobarbital (60 mg·kg^−1, i.p.) received surgically implanted jugular catheters, and intracerebral guide cannulae aimed at the nucleus accumbens (AP +1.6 mm, ML −1.7 mm relative to bregma; −6.2 mm relative to dura) (Paxinos and Watson, 2007). After a 7–10 day recovery, each rat was placed into a chamber equipped with photobeams for the detection of motor parameters (TruScan, Harvard Apparatus, Holliston, MA, USA) and allowed to acclimatize overnight. Food and water were available ad libitum during the acclimatization period. On the following morning, catheters were attached to PE 50 extension tubes, and 0.5 × 2 mm microdialysis probes (CMA/12, Harvard Apparatus, Holliston, MA, USA) were inserted into the guide cannulae. Ringers' solution (150 mM NaCl, 2.8 mM KCl and 2.0 mM CaCl2) was perfused through the probes at 0.6 μL·min^−1 for 3 h. To commence experiments, dialysate samples ([…]) were collected at 20 min intervals, and drug or saline treatments were given after three baseline samples were obtained. Rats received two sequential i.v. injections of mephedrone or its metabolites, with 1 mg·kg^−1 administered at time zero, followed by 3 mg·kg^−1 60 min later. Saline was administered using the same schedule in a separate group of rats. Dialysate concentrations of dopamine and 5‐HT were quantified using HPLC coupled to electrochemical detection (Baumann et al., 2012). Chromatographic data were exported to an Empower software system (Waters, Inc., Milford, MA, USA) for peak identification, integration and analysis.
Correct probe placements were assessed after the microdialysis experiments. Rats were killed by CO2 narcosis then decapitated. Brains were quickly removed and immersion fixed in 10% paraformaldehyde for 1 week. Subsequently, brains were sectioned on a cryostat, and the location of each probe tip was verified by inspection of photographic images of the brain taken with a digital camera using the macro lens setting.
(§1) Calculations were performed using Microsoft Excel® 2010 (Microsoft Corporation, Redmond, WA, USA) and GRAPHPAD PRISM 5.0. (GraphPad Software Inc., La Jolla, CA, USA). IC50 values for uptake inhibition and EC50 values for release were determined by nonlinear regression fits. Release data expressed as AUC were analysed by one‐way ANOVA followed by Bonferroni's multiple comparison test. Microdialysis and locomotor data were analysed by two‐way ANOVA (drug treatment × time) followed by Bonferroni's test. The effect of monensin treatment on basal efflux of tritiated substrate was analysed with the Mann–Whitney test. P values less than 0.05 (i.e. P < 0.05) were considered significant. The data and statistical analysis comply with the recommendations on experimental design and analysis in pharmacology (Curtis et al., 2015).

[2] = target: T1, hDAT (Homo sapiens, UniProt Q01959); experiment: Transporter uptake inhibition in HEK293 cells expressing hDAT; format: cell-based; details: [3H]-MPP+ uptake; for IC50: mean (95% confidence interval)
T1 construct: expressed in transfected cells
Description: (§2) The generation of HEK293 cells stably expressing the human isoforms of DAT (hDAT) and NET (hNET) was carried out as described previously (Scholze et al., 2002). For SERT, the human isoform (hSERT) was cloned in frame with yellow fluorescent protein (Schmid et al., 2001). The generation of a stable cell line was performed as described by Hilber and colleagues (Hilber et al., 2005). HEK293 cells were maintained in humidified atmosphere (5% CO2, 37°C) in DMEM, supplemented with 10% heat‐inactivated FBS and penicillin (100 u 100 mL^−1) and streptomycin (100 μg 100 mL^−1). Selection pressure was maintained by adding geneticin (50 μg·mL^−1) to the cell culture media.
(§3) Uptake experiments were conducted as described previously (Sitte et al., 2001) with minor modifications. In brief, HEK293 cells expressing hDAT, hNET or hSERT were seeded into poly‐D‐lysine (PDL) coated 96‐well plates at a density of 40 000 cells per well. The next day, DMEM was aspirated and replaced with Krebs HEPES buffer (KHB, 25 mM HEPES, 120 mM NaCl, 5 mM KCl, 1.2 mM CaCl2, and 1.2 mM MgSO4, 5 mM D‐glucose, pH adjusted to 7.3 with NaOH) (200 μL per well), and cells were pre‐incubated with various concentrations of mephedrone or its metabolites for 5 min (50 μL per well). Subsequently, 0.1 μM of [^3H]‐5‐HT or 0.02 μM of [^3H]‐MPP^+ were added, and uptake was terminated after 1 (hSERT) or 3 min (hDAT, hNET) by washing the cells with 200 μL of ice‐cold KHB. Cells were lysed with 1% SDS, and tritium uptake was determined by scintillation counting. Nonspecific uptake was determined in the presence of 10 μM paroxetine (hSERT) or 10 μM mazindol (hDAT and hNET).
as §1

[3] = target: T2, hNET (Homo sapiens, UniProt P23975); experiment: Transporter uptake inhibition in HEK293 cells expressing hNET; format: cell-based; details: [3H]-MPP+ uptake; for IC50: mean (95% confidence interval)
T2 construct: expressed in transfected cells
Description: as §2, §3
as §1, with “GRAPHPAD” left out

[4] = 3 mg·kg−1 i.v. (60 min after 1 mg·kg−1)
[5] = IC50 on uptake mediated by hDAT
[6] = IC50 on uptake mediated by hNET

T1 sequence (Q01959 whole entry): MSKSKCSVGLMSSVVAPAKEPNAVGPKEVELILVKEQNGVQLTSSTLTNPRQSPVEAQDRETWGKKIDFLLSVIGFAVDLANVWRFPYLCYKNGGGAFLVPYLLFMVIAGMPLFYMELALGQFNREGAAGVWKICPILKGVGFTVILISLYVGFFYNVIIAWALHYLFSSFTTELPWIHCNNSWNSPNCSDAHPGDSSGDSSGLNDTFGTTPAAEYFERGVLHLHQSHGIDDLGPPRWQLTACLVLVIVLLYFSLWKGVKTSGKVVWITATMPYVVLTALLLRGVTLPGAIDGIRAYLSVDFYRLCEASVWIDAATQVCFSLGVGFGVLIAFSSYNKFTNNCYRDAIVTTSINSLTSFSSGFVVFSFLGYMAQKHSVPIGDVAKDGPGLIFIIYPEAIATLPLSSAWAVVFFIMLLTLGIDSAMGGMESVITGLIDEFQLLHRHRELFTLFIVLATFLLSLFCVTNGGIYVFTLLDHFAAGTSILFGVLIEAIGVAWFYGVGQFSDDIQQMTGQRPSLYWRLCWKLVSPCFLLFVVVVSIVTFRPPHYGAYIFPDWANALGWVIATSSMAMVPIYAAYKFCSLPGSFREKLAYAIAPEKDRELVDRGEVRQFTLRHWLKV
T2 sequence (P23975 whole entry): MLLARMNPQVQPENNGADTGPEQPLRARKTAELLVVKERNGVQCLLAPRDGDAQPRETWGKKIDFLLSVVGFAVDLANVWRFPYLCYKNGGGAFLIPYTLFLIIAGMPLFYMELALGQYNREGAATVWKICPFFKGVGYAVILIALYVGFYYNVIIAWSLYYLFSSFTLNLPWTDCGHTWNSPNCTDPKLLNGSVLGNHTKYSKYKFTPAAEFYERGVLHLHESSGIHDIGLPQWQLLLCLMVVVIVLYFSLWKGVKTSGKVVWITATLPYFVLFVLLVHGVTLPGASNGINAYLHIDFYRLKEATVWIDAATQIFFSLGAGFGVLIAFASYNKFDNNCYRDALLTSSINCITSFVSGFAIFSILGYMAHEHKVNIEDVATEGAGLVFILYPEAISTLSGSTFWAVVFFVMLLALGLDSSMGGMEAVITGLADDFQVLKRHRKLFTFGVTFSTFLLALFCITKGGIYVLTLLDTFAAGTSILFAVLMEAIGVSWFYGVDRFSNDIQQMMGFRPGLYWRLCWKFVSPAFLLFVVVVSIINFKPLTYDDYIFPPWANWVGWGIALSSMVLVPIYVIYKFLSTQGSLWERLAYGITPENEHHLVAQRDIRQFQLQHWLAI

For CNC(C)C(=O)c1ccc(C)cc1.Cl (centres unmarked) [Mephedrone, 2‐Methylamino‐1‐(p‐tolyl)propan‐1‐one hydrochloride], the “effect on dialysate dopamine” value ([1]; 1 mg·kg−1 i.v.) was “increased dopamine”, the “effect on dialysate dopamine” value [1, 4] was “elevated dopamine” and the IC50 [2, 5] was 0.77 µM. For the same compound, the “efficacy of uptake inhibition at hDAT” value [2] was “fully efficacious inhibitors of uptake”, the IC50 [3, 6] was 2.77 µM and the “efficacy of uptake inhibition at hNET” value [3] was “fully efficacious inhibitors of uptake”.

In the case of Cc1ccc(C(=O)C(C)N)cc1.Cl (centres unmarked) [Nor‐mephedrone, 2‐amino‐1‐(p‐tolyl)propan‐1‐one hydrochloride], the “effect on dialysate dopamine” value [1, 4] is reported as “elevated dopamine”, the IC50 [2, 5] is reported as 6.35 µM and the “efficacy of uptake inhibition at hDAT” value [2] is reported as “fully efficacious inhibitors of uptake”. For the same compound, the IC50 [3, 6] was 5.46 µM and the “efficacy of uptake inhibition at hNET” value [3] was “fully efficacious inhibitors of uptake”.

In the case of CNC(C)C(=O)c1ccc(CO)cc1.Cl (centres unmarked) [4‐OH‐mephedrone, 1‐(4‐(hydroxymethyl)phenyl)‐2‐(methylamino)propan‐1‐one hydrochloride], the “effect on dialysate dopamine” value ([1]; 1 mg·kg−1 i.v.) is reported as “no significant impact”, the “effect on dialysate dopamine” value [1, 4] is reported as “no significant impact” and the “efficacy of uptake inhibition at hDAT” value [2] is reported as “fully efficacious inhibitors of uptake”. The IC50 ([2]; read-out: IC50 on uptake mediated by hDAT) was 2.92 µM, the “efficacy of uptake inhibition at hNET” value [3] was “fully efficacious inhibitors of uptake” and the IC50 ([3]; read-out: IC50 on uptake mediated by hNET) was 4.85 µM.
